Here are results for 12 compounds from patent US6235754A, “Methods and compositions for protecting animals and humans against attack and infestation by arthropod and helminth parasites” (American Cyanamid Company, priority 1999, dated 2001).

Molecules are shown by their SMILES. Where two headings read alike, the source gives them in different places.

This assay deals with Ctenocephalides felis (cat flea). Put plainly: Contact activity against the adult cat flea (Table I). Format: in vivo. The settings on record: topical. How it is done:
This test is designed to evaluate the contact activity of test compounds against the adult cat flea. Test compounds are dissolved in 100% acetone to 300, 100, 10 and 1 ppm. 100 μL of each of these dilutions is added to the bottom of a 20 mL glass scintillation vial with a pipettor. The vial is allowed to dry under a fume hood for 15 minutes. The bottom of the vial measures 4.909 cm^2. The amount of test compound applied by each dilution equals 6.2, 2.0, 0.2 and 0.02 μg/cm^2, respectively. Newly emerged adult cat fleas are anesthetized with CO2 to immobilize, and are counted into the scintillation vials with forceps. Five fleas are placed in each vial. These tests are done in replicates of two or three so that there are 10 to 15 fleas per rate/compound. Mortality readings are taken 4 and 24 hours after placing the fleas in the vials. […] Percent mortality is then calculated for each treatment.

[1] abbreviates: 4 h, read-out: 4 Hour % Mortality.
The mark [2] stands for this setting: 24 h, read-out: 24 Hour % Mortality.

Consider `CCOc1ccc(C(/C(F)=C/Cc2cccc(Oc3ccccc3)c2)C2CC2)cc1` (racemic) [Compound 14, 1-[1-(p-Ethoxyphenyl)-2-fluoro-4-(m-phenoxyphenyl)-2-butenyl]cyclopropane, (R,S)-(Z)-], for which, under setting [1], the mortality at 0.02 µg/cm2 was 10%, the mortality at 0.2 µg/cm2 is 20%, the mortality at 2 µg/cm2 turned out to be 20% and the mortality at 6.2 µg/cm2 was determined as 50%. Also, under setting [2], the mortality at 0.02 µg/cm2 is 30%, the mortality at 0.2 µg/cm2 was found to be 60%, the mortality at 2 µg/cm2 was determined as 100% and the mortality at 6.2 µg/cm2 amounted to 100%.

In the case of `F/C(=C\Cc1cccc(Oc2ccccc2)c1)C(c1ccc(F)cc1)C1CC1` (racemic) [Compound 15, 1-[2-Fluoro-1-(p-fluorophenyl)-4-(m-phenoxyphenyl)-2-butenyl]cyclopropane, (R,S)-(Z)-], under setting [1], the mortality at 0.2 µg/cm2 was determined as 44%, the mortality at 2 µg/cm2 was 80% and the mortality at 6.2 µg/cm2 stood at 100%. Besides, under setting [2], the mortality at 0.2 µg/cm2 is 78%, the mortality at 2 µg/cm2 came to 100% and the mortality at 6.2 µg/cm2 stood at 100%.

Consider `CCOc1ccc(C(/C(F)=C/Cc2ccc(F)c(Oc3ccc(F)cc3)c2)C2CC2)cc1` (racemic) [Compound 16, 1-{1-(p-Ethoxyphenyl)-2-fluoro-4-[4-fluoro-3-(p-fluorophenoxy)phenyl]-2-butenyl}cyclopropane, (R,S)-(Z)-], for which, under setting [1], the mortality at 0.02 µg/cm2 is 0%, the mortality at 0.2 µg/cm2 turned out to be 20%, the mortality at 2 µg/cm2 came to 71% and the mortality at 6.2 µg/cm2 was 100%. Further, under setting [2], the mortality at 0.02 µg/cm2 stood at 60%, the mortality at 0.2 µg/cm2 worked out at 50%, the mortality at 2 µg/cm2 worked out at 100% and the mortality at 6.2 µg/cm2 was determined as 100%.

For `CC(C)(C(F)=CCc1cccc(Oc2ccccc2)c1)c1ccc(Cl)cc1` [Compound 1, 4-(p-Chlorophenyl)-3-fluoro-4-methyl-1-(m-phenoxyphenyl)-2-pentene, (Z)- and (E)-(95:5)], under setting [1], the mortality at 0.02 µg/cm2 is 5%, the mortality at 0.2 µg/cm2 came to 5%, the mortality at 2 µg/cm2 came out at 10% and the mortality at 6.2 µg/cm2 is 0%. Also, under setting [2], the mortality at 0.02 µg/cm2 amounted to 10%, the mortality at 0.2 µg/cm2 was 20%, the mortality at 2 µg/cm2 came out at 35% and the mortality at 6.2 µg/cm2 was 53%.

`CC(C)(/C(F)=C/Cc1ccc(F)c(Oc2ccccc2)c1)c1ccc(Cl)cc1` [Compound 2, 4-(p-Chlorophenyl)-3-fluoro-1-(4-fluoro-3-phenoxyphenyl)-4-methyl-2-pentene, (Z)-]: under setting [1], the mortality at 0.02 µg/cm2 was determined as 5%, the mortality at 0.2 µg/cm2 worked out at 0%, the mortality at 2 µg/cm2 came to 0% and the mortality at 6.2 µg/cm2 was determined as 22%. Besides, under setting [2], the mortality at 0.02 µg/cm2 came out at 10%, the mortality at 0.2 µg/cm2 was found to be 32%, the mortality at 2 µg/cm2 is 58% and the mortality at 6.2 µg/cm2 amounted to 100%.

For the compound `F/C(=C\Cc1cccc(Oc2ccccc2)c1)C1(c2ccc(Cl)cc2)CC1` [Compound 3, 1-(p-Chlorophenyl)-1-[1-fluoro-3-(m-phenoxyphenyl)propenyl]cyclopropane, (Z)-], under setting [1], the mortality at 0.02 µg/cm2 turned out to be 5%, the mortality at 0.2 µg/cm2 amounted to 0%, the mortality at 2 µg/cm2 is 7% and the mortality at 6.2 µg/cm2 was found to be 0%. Besides, under setting [2], the mortality at 0.02 µg/cm2 is 5%, the mortality at 0.2 µg/cm2 stood at 7%, the mortality at 2 µg/cm2 came out at 17% and the mortality at 6.2 µg/cm2 was found to be 13%.

In the case of `F/C(=C\Cc1ccc(F)c(Oc2ccccc2)c1)C1(c2ccc(Cl)cc2)CC1` [Compound 4, 1-(p-Chlorophenyl)-1-[1-fluoro-3-(4-fluoro-3-phenoxyphenyl)propenyl]cyclopropane, (Z)-], under setting [1], the mortality at 0.02 µg/cm2 turned out to be 5%, the mortality at 0.2 µg/cm2 is 7%, the mortality at 2 µg/cm2 is 0% and the mortality at 6.2 µg/cm2 stood at 3%. Moreover, under setting [2], the mortality at 0.02 µg/cm2 is 16%, the mortality at 0.2 µg/cm2 was 14%, the mortality at 2 µg/cm2 came out at 21% and the mortality at 6.2 µg/cm2 is 28%.

`F/C(=C\Cc1cccc(Oc2ccccc2)c1)C(c1ccc(Cl)cc1)C1CC1` (stereo not shown) [Compound 6, 1-[1-(p-Chlorophenyl)-2-fluoro-4-(m-phenoxyphenyl)-2-butenyl]cyclopropane, (Z)-]: under setting [1], the mortality at 0.02 µg/cm2 was 0%, the mortality at 0.2 µg/cm2 amounted to 0%, the mortality at 2 µg/cm2 worked out at 56% and the mortality at 6.2 µg/cm2 came out at 80%. Moreover, under setting [2], the mortality at 0.02 µg/cm2 worked out at 8%, the mortality at 0.2 µg/cm2 is 28%, the mortality at 2 µg/cm2 turned out to be 88% and the mortality at 6.2 µg/cm2 is 100%.

For the compound `CC(C)C(/C(F)=C/Cc1ccc(F)c(Oc2ccccc2)c1)c1ccc(Cl)cc1` (stereo not shown) [Compound 7, 4-(p-Chlorophenyl)-3-fluoro-1-(4-fluoro-3-phenoxyphenyl)-5-methyl-2-hexene, (Z)-], under setting [1], the mortality at 0.02 µg/cm2 turned out to be 0%, the mortality at 0.2 µg/cm2 was 0%, the mortality at 2 µg/cm2 came out at 0% and the mortality at 6.2 µg/cm2 amounted to 0%. In addition, under setting [2], the mortality at 0.02 µg/cm2 stood at 10%, the mortality at 0.2 µg/cm2 came out at 0%, the mortality at 2 µg/cm2 was found to be 0% and the mortality at 6.2 µg/cm2 was determined as 100%.

On to `CC(C)C(/C(F)=C/Cc1cccc(Oc2ccccc2)c1)c1ccc(Cl)cc1` (stereo not shown) [Compound 8, 4-(p-Chlorophenyl)-3-fluoro-5-methyl-1-(m-phenoxyphenyl)-2-hexene, (Z)-], for which, under setting [1], the mortality at 0.02 µg/cm2 amounted to 0%, the mortality at 0.2 µg/cm2 came to 0%, the mortality at 2 µg/cm2 is 0% and the mortality at 6.2 µg/cm2 is 0%. Further, under setting [2], the mortality at 0.02 µg/cm2 worked out at 10%, the mortality at 0.2 µg/cm2 worked out at 0%, the mortality at 2 µg/cm2 came out at 0% and the mortality at 6.2 µg/cm2 was found to be 20%.

As to `CC(C)(C)C(/C(F)=C/Cc1cccc(Oc2ccccc2)c1)c1ccc(Cl)cc1` (stereo not shown) [Compound 9, 4-(p-Chlorophenyl)-3-fluoro-5-methyl-1-(m-phenoxyphenyl)-5-methyl-2-hexene, (Z)-], under setting [1], the mortality at 0.02 µg/cm2 was found to be 0%, the mortality at 0.2 µg/cm2 was determined as 0%, the mortality at 2 µg/cm2 amounted to 30% and the mortality at 6.2 µg/cm2 came out at 20%. In addition, under setting [2], the mortality at 0.02 µg/cm2 amounted to 40%, the mortality at 0.2 µg/cm2 came out at 70%, the mortality at 2 µg/cm2 turned out to be 70% and the mortality at 6.2 µg/cm2 came out at 80%.

Consider `CCOc1ccc(C(/C(F)=C/Cc2cccc(Oc3ccccc3)c2)C(C)C)cc1` (stereo not shown) [Compound 11, 4-(p-Ethoxyphenyl)-3-fluoro-5-methyl-1-(m-phenoxyphenyl)-2-hexene, (Z)-], for which, under setting [1], the mortality at 0.02 µg/cm2 turned out to be 0%, the mortality at 0.2 µg/cm2 worked out at 10%, the mortality at 2 µg/cm2 was determined as 30% and the mortality at 6.2 µg/cm2 worked out at 60%. Under setting [2], the mortality at 0.02 µg/cm2 is 10%, the mortality at 0.2 µg/cm2 came out at 40%, the mortality at 2 µg/cm2 is 90% and the mortality at 6.2 µg/cm2 worked out at 90%.

In general, mortality refers to the share of the test organisms that died.
